Source: paper PMC8079065, “Design, synthesis and in vitro and in vivo biological evaluation of flurbiprofen amides as new fatty acid amide hydrolase/cyclooxygenase-2 dual inhibitory potential analgesic agents” (Journal of Enzyme Inhibition and Medicinal Chemistry, 2021)
Read-outs that look alike come from different tables or passages of the source.

Experiments:
iNOS = iNOS expression in the spinal cord of CCI-mice; format: in vivo; conditions: 10 mg/kg ip, 1 h before
CD1 male mice [1] = test: Formalin-evoked hind-paw licking; format: in vivo; conditions: phase I and II
Method: The behavioural experiments were performed on CD1 male mice (25–30 g Charles Rivers-Italy). They were housed in the animal care facility of the Department Experimental of Pharmacology, University of Naples. The animals were acclimated to their environment for 1 week and had ad libitum access to standard rodent chow pellets VRF1 (purchased from Special Diet Service-SDS). All behavioural tests were performed between 9:00 AM and 13:00 PM, and the animals were only used once. Procedures involving animals and their care were conducted in conformity with international and national law and policies (EU Directive 2010/63/EU for animal experiments). The procedures reported here were approved by the Institutional Committee on the Ethics of Animal Experiments (CSV) of the University of Naples “Federico II” and by the “Ministero della Salute”, protocol no. 2014–0084607. At the end of all experiments for all pain models, the animals were euthanized by CO2 overdose.
During this study, Flu-AM4 was administered systemically (intraperitoneally) and locally (intraplantar 100 microg/paw). […]
Mice received intraplantar injections of formalin in saline (10%,vol/vol; 10 µl/paw). Paw licking was monitored by an observer blind to the experimental treatment for periods of 0–15 min (early phase) and 15–60 min (late phase) immediately after formalin administration. […]

FAAH [2] = target: T1, FAAH (Rattus norvegicus, UniProt P97612); test: FAAH assay: [3H]AEA hydrolysis by rat brain homogenates; format: biochemical; conditions: for IC50: 0.5 µM [3H]AEA, rat brain homogenates
T1 construct: rat or mouse brain homogenates as the enzyme source; from tissue; host or cells: rat brain (minus cerebellum), Wistar or Sprague-Dawley, washed membrane homogenate
T1 sequence (P97612 1-579): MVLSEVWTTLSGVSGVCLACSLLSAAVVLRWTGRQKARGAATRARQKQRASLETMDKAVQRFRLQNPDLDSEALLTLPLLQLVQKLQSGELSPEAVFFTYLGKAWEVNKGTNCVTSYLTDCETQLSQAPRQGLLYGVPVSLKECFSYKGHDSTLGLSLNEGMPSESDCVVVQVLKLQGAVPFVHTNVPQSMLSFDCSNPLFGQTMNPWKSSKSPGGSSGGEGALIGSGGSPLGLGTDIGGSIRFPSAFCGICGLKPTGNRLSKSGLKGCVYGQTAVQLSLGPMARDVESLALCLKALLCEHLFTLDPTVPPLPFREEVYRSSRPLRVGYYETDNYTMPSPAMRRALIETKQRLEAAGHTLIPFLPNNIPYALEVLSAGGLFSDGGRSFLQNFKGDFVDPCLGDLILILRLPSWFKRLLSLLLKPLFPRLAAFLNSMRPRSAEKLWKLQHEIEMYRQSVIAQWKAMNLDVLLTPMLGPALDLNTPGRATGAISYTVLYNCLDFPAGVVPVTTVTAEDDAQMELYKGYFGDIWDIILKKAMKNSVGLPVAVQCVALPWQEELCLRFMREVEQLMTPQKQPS

FAAH [3] = target: T2, FAAH (Mus musculus, UniProt O08914); test: FAAH assay: [3H]AEA hydrolysis by mouse brain homogenates; format: biochemical; conditions: 0.5 µM [3H]AEA
T2 construct: rat or mouse brain homogenates as the enzyme source; from tissue; host or cells: mouse brain (minus cerebellum), male B6CBAF1/J, washed membrane homogenate
T2 sequence (O08914 1-579): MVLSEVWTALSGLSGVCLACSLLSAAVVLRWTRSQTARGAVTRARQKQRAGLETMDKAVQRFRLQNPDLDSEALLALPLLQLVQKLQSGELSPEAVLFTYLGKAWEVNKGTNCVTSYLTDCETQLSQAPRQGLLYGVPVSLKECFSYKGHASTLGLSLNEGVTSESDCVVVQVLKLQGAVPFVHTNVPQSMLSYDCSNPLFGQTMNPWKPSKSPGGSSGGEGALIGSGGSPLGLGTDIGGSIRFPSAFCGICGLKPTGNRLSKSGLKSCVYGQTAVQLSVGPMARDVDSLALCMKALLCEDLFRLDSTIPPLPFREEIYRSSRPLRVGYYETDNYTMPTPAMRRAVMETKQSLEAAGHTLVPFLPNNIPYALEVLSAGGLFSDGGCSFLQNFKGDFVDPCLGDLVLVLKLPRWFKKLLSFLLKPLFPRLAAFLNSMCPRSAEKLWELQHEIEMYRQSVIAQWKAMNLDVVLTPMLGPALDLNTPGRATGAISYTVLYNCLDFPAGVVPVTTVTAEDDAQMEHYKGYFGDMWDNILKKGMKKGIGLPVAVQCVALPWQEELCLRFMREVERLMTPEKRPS

CD1 male mice [4] = test: Carrageenan-induced paw oedema; format: in vivo; conditions: 10 mg/kg ip, 5 min after carrageenan; p < 0.05
Method: The behavioural experiments were performed on CD1 male mice (25–30 g Charles Rivers-Italy). They were housed in the animal care facility of the Department Experimental of Pharmacology, University of Naples. The animals were acclimated to their environment for 1 week and had ad libitum access to standard rodent chow pellets VRF1 (purchased from Special Diet Service-SDS). All behavioural tests were performed between 9:00 AM and 13:00 PM, and the animals were only used once. Procedures involving animals and their care were conducted in conformity with international and national law and policies (EU Directive 2010/63/EU for animal experiments). The procedures reported here were approved by the Institutional Committee on the Ethics of Animal Experiments (CSV) of the University of Naples “Federico II” and by the “Ministero della Salute”, protocol no. 2014–0084607. […]
Paw edoema was induced by a subplantar injection of 0.1 ml of sterile saline containing 1% λ-carrageenan (Sigma Aldrich) into the right hind paw. Paw volumes were measured by a plethysmometer (Ugo Basile, Italy) at different times after the paw injection. The increase in paw volume was evaluated as the difference between the paw volume measured (Vm) at each time point (1, 2, 4, 6 and 48 h post carrageenan) and the basal paw volume (Vb) measured immediately before carrageenan injection (Δ volume = Vm – Vb).

CC(C(=O)Nc1ncccc1Br)c1ccc(-c2ccccc2)c(F)c1 (stereo not shown) [Flu-AM4, N-(3-Bromopyridin-2-yl)-2-(2-fluoro-(1,1'-biphenyl)-4-yl)propanamide] was tested, and the “iNOS expression in the spinal cord” value (iNOS) was “significantly reduced this expression”, the “formalin-induced paw licking, local application” value (CD1 male mice [1]; 100 µg intraplantar, co-administered with formalin 5%, p < 0.001) was “reduced the paw licking time in both phases” and the “formalin-induced paw licking, systemic administration” value (CD1 male mice [1]; 10 mg/kg ip, 1 h before formalin, p < 0.001 vs vehicle) was “reduce the behavioural responses in both phases”. It also gave an IC50 (FAAH [2]; derived from pI50, read-out: IC50 for inhibition of rat brain AEA hydrolysis) of 21 nM, an IC50 (FAAH [2]; means ± s.e.m., n = 3–4, read-out: pI50 (-logIC50) for inhibition of rat brain AEA hydrolysis (converted)) of 21.4 nM and a Ki (FAAH [2]; rat brain [3H]AEA hydrolysis, competitive model) of 13 nM. The “increase in FAAH inhibitory activity versus Flu-AM1” value (FAAH [2]; rat brain, IC50 compared with Flu-AM1) was “approximately 20 fold”, the “FAAH potency versus flurbiprofen” value (FAAH [2]; rat brain, IC50 compared with flurbiprofen) was “more than three orders of magnitude greater than flurbiprofen” and the “mode of FAAH inhibition (kinetics)” value (FAAH [2]; rat brain, best fit by Akaike's criteria) was “competitive inhibition”. The “reversibility of FAAH inhibition” value (FAAH [2]; rat brain, preincubation and 20-fold dilution experiments) was “reversible inhibitor”, the “potency towards rat brain FAAH versus mouse brain FAAH” value (FAAH [2]; rat vs mouse brain) was “an order of magnitude more potent towards rat brain FAAH than mouse brain FAAH” and the IC50 (FAAH [3]) was 430 nM. The carrageenan-induced paw oedema (CD1 male mice [4]) was “reduced paw oedema at 2 and 4 h”.
